This note sets out measurements from ChEMBL document CHEMBL4680379, “Structure-based Discovery of Cell-Potent Peptidomimetic Inhibitors for Protein N-Terminal Methyltransferase 1” (ACS Med Chem Lett, 2021).

The target of data set [1] is T1, N-terminal Xaa-Pro-Lys N-methyltransferase 1 (Homo sapiens, UniProt Q9BV86).
T1 sequence (Q9BV86 whole entry): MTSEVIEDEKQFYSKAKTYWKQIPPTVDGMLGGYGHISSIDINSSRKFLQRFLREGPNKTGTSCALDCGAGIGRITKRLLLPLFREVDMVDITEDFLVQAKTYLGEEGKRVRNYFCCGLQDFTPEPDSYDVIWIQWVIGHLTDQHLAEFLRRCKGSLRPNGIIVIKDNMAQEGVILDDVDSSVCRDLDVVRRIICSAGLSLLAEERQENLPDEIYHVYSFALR
Put plainly: Inhibition of NTMT1 in human HT29 cells assessed as decrease in me3-RCC1 level incubated for 3 days by Western blot analysis. In kind it is cell-based, HT-29. In general terms: Immunoblotting shows a protein as a band on a membrane.

Data set [2] has as its target Protein arginine N-methyltransferase 3 (Homo sapiens) (UniProt O60678). Description: Inhibition of PRMT3 (unknown origin) at 100 uM relative to control.
Data set [3] is filed under the species Homo sapiens. Description: Selectivity for recombinant human N-terminal His6-tagged NTMT1 (1 to 222 residues) expressed in Escherichia coli BL21-CodonPlus(DE3)-RIL over PRMT1 (unknown origin).
Data set [4] is filed under the species Homo sapiens. Put plainly: Selectivity for recombinant human N-terminal His6-tagged NTMT1 (1 to 222 residues) expressed in Escherichia coli BL21-CodonPlus(DE3)-RIL over PRMT3 (unknown origin).
Data set [5] addresses T2, N-terminal Xaa-Pro-Lys N-methyltransferase 1 (Homo sapiens) (UniProt Q9BV86).
T2 sequence (whole entry): T1 sequence (Q9BV86 whole entry)
Put plainly: Inhibition of NTMT1 in human HCT116 cells assessed as decrease in me3-SPK level at 1 mM incubated for 3 days by Western blot analysis relative to control. Conditions: HCT-116, time 3.0 day. In kind it is cell-based.

Data set [6] is filed under the species Homo sapiens. Put plainly: Selectivity for recombinant human N-terminal His6-tagged NTMT1 (1 to 222 residues) expressed in Escherichia coli BL21-CodonPlus(DE3)-RIL over His-tagged SETD7 (unknown origin).
Data set [7] deals with HT-29. Put plainly: Cytotoxicity against human HT29 cells assessed as reduction in cell viability up to 1 mM incubated for 48 hrs by resazurin-dye based alamar blue assay. The settings on record: ht-29, 48 h. (In general: The colour change of resazurin is a common sign of viable cells or microbes.)
In data set [8] the target is T3, Histone-lysine N-methyltransferase SETD7 (Homo sapiens) (UniProt Q8WTS6).
T3 sequence (whole entry): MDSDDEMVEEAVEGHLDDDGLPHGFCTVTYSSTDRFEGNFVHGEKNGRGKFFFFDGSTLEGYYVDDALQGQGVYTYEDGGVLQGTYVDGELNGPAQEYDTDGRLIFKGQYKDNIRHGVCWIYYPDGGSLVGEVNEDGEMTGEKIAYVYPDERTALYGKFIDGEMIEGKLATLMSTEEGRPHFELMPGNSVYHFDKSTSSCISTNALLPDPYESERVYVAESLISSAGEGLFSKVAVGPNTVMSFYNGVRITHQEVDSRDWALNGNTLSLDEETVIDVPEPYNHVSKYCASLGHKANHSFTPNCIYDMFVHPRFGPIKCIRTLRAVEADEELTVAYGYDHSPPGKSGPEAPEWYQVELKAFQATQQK
Put plainly: Inhibition of His-tagged SETD7 (unknown origin) at 100 uM using H3-21 peptide as substrate preincubated for 10 mins in presence of SAM followed by substrate addition by SAHH-coupled fluorescence assay relative to control.

The target in data set [9] is Adenosylhomocysteinase (Homo sapiens) (UniProt P23526). Description: Inhibition of SAHH (unknown origin) at 100 uM relative to control.
Data set [10] deals with HCT-116. Description: Cytotoxicity against human HCT116 cells assessed as reduction in cell viability up to 1 mM incubated for 48 hrs by resazurin-dye based alamar blue assay. The settings on record: hct-116, 48 h.
Data set [11] has as its system HT-29. Put plainly: Cytotoxicity against human HT29 cells assessed as reduction in cell viability up to 1 mM incubated for 72 hrs by resazurin-dye based alamar blue assay. Conditions: ht-29, 72 h.
For data set [12], the system named is HCT-116. Put plainly: Cytotoxicity against human HCT116 cells assessed as reduction in cell viability up to 1 mM incubated for 72 hrs by resazurin-dye based alamar blue assay. The settings on record: hct-116, 72 h.
For data set [13], the species on record is Homo sapiens. Description: Selectivity for recombinant human N-terminal His6-tagged NTMT1 (1 to 222 residues) expressed in Escherichia coli BL21-CodonPlus(DE3)-RIL over SAHH (unknown origin).
For data set [14], the system named is HT-29. Put plainly: Cytotoxicity against human HT29 cells assessed as reduction in cell viability up to 1 mM incubated for 24 hrs by resazurin-dye based alamar blue assay. Conditions: ht-29, 24 h.
Data set [15] in a line: Selectivity for recombinant human N-terminal His6-tagged NTMT1 (1 to 222 residues) expressed in Escherichia coli BL21-CodonPlus(DE3)-RIL over Trypanosoma brucei N-terminal His6-tagged PRMT7 expressed in Escherichia coli BL21-CodonPlus(DE3)-RIL.
Data set [16] deals with Protein arginine N-methyltransferase 1 (Homo sapiens) (UniProt Q99873). Description: Inhibition of PRMT1 (unknown origin) at 100 uM using H4-21 peptide as substrate preincubated for 10 mins in presence of SAM followed by substrate addition by SAHH-coupled fluorescence assay relative to control.

A value given as a limit tells only on which side of the number the result lay.

Sequence of Protein arginine N-methyltransferase 3 (Homo sapiens) (O60678 2-531 limits assumed): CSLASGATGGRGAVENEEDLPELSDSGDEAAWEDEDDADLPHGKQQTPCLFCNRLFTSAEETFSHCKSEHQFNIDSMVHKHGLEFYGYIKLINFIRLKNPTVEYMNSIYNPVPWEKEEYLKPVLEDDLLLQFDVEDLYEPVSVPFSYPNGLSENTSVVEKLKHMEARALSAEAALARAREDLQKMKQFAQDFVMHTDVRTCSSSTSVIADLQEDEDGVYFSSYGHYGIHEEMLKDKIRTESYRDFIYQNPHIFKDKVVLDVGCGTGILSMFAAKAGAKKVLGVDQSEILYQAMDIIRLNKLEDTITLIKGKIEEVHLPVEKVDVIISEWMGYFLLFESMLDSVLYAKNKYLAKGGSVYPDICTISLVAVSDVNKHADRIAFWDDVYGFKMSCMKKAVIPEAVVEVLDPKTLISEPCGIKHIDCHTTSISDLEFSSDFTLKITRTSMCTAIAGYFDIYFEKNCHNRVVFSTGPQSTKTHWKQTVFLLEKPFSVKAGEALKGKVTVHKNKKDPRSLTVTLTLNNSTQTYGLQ
Sequence of Protein arginine N-methyltransferase 1 (Homo sapiens) (Q99873 whole entry, looked up): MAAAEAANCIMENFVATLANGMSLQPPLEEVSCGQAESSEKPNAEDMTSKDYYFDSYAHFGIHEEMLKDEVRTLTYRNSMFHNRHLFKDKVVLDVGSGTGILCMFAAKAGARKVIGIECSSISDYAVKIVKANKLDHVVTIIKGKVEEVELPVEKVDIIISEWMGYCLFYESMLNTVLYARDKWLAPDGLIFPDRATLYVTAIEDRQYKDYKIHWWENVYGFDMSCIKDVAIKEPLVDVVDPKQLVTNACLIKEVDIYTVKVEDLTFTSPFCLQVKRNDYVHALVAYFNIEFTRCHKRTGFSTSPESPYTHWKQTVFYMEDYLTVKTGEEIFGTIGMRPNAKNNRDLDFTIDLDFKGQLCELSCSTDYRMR
Sequence of Adenosylhomocysteinase (Homo sapiens) (P23526 2-432 limits assumed): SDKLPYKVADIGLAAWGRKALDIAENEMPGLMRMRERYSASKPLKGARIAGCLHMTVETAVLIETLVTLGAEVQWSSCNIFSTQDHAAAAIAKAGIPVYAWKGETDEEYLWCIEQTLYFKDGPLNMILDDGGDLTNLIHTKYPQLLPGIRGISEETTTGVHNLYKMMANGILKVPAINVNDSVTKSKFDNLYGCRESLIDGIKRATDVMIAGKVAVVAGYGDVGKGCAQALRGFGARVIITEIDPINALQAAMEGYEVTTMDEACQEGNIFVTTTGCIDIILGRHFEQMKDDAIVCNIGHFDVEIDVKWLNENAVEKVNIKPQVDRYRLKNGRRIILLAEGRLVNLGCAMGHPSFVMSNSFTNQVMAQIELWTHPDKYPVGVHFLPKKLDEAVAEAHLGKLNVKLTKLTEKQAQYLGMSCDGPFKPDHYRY

For orientation: IC50 means the concentration needed to halve the response being measured. As a reminder, the inhibition is the percentage by which the read-out fell short of the control. Take `NCCCC[C@H](NC(=O)[C@@H]1CCCN1C(=O)Cc1cccc2ccccc12)C(=O)Nc1ccccc1C(N)=O`: in [1], the 50% inhibitory concentration (IC50) came out at 30 µM. Also, the inhibition in data set [2] was under 50%; in [5], 100%; in data set [8], under 50%; in [9], under 50%; in data set [16], under 50%. The Selectivity ratio in [3], in [4], in data set [6], in [13] and in data set [15] was over 300 each time. Moreover, the Activity result in [7], in data set [10], in data set [11], in [12] and in data set [14] was “Non-Toxic” in each case.
